Data from patent US10787452B2 (Vertex Pharmaceuticals Incorporated, priority 2012, dated 2020).

Test system: HCT116 colorectal cancer cells
Experiment: Cisplatin sensitization assay (96 h cell viability MTS);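 also: compound concentration needed to lower the Cisplatin-alone IC50 by a set fold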
Type: cell-based
Details: 96 h MTS, compound plus Cisplatin
Method in brief: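 Viability is measured with MTS reagent, added after 96 h and developed for 1 h at 37° C. Beforehand, cells receive compound and cisplatin simultaneously in a concentration matrix of 2-fold serial dilutions starting at 10 μM final.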

SMILES | Cisplatin Sensitization Assay
Nc1nn2cc(F)cnc2c1C(=O)Nc1cncc(F)c1N1CCC(C(=O)N2CCN3CCC2CC3)CC1 [I-G-7, N-(4-(4-(1,4-diazabicyclo[3.2.2]nonane-4-carbonyl)piperidin-1-yl)-5-fluoropyridin-3-yl)-2-amino-6-fluoropyrazolo[1,5-a]pyrimidine-3-carboxamide] | +++ (Compounds with a Cisplatin sensitization value of <0.02 μM are marked with “+++.”)
Nc1nn2cc(Cl)cnc2c1C(=O)Nc1cnccc1N1CCN2CCC[C@H]2C1 [I-N-71, (S)-2-amino-6-chloro-N-(4-(hexahydropyrrolo[1,2-a]pyrazin-2(1H)-yl)pyridin-3-yl)pyrazolo[1,5-a]pyrimidine-3-carboxamide] | +++ (Compounds with a Cisplatin sensitization value of <0.02 μM are marked with “+++.”)
CN(C)CC1(O)CCN(c2ccncc2NC(=O)c2c(N)nn3cc(Cl)cnc23)CC1 [I-N-36, 2-amino-6-chloro-N-(4-(4-((dimethylamino)methyl)-4-hydroxypiperidin-1-yl)pyridin-3-yl)pyrazolo[1,5-a]pyrimidine-3-carboxamide] | ++ (Compounds with a Cisplatin sensitization value >0.02 μM but <0.2 μM are marked with “++.”)
Nc1nn2cc(F)cnc2c1C(=O)Nc1cncc(F)c1N1CCC(N2CCCC2=O)CC1 [I-N-147, 2-amino-6-fluoro-N-(5-fluoro-4-(4-(2-oxopyrrolidin-1-yl)piperidin-1-yl)pyridin-3-yl)pyrazolo[1,5-a]pyrimidine-3-carboxamide] | +++ (Compounds with a Cisplatin sensitization value of <0.02 μM are marked with “+++.”)
Nc1nn2cc(F)cnc2c1C(=O)Nc1cnccc1-c1ccncc1 [I-C-24, N-([4,4′-bipyridin]-3-yl)-2-amino-6-fluoropyrazolo[1,5-a]pyrimidine-3-carboxamide] | +++ (Compounds with a Cisplatin sensitization value of <0.02 μM are marked with “+++.”)
N#CCc1cnc2c(C(=O)Nc3cnccc3N3CCOC(CN)C3)c(N)nn2c1 (stereo not drawn) [I-N-90, 2-amino-N-(4-(2-(aminomethyl)morpholino)pyridin-3-yl)-6-(cyanomethyl)pyrazolo[1,5-a]pyrimidine-3-carboxamide] | + (Compounds with a Cisplatin sensitization value >0.2 μM but <5 μM are marked with “+.”)
Nc1nn2cc(F)cnc2c1C(=O)Nc1cnccc1N1CCC(S(=O)(=O)N2CCOCC2)CC1 [I-N-170, 2-amino-6-fluoro-N-(4-(4-(morpholinosulfonyl)piperidin-1-yl)pyridin-3-yl)pyrazolo[1,5-a]pyrimidine-3-carboxamide] | +++ (Compounds with a Cisplatin sensitization value of <0.02 μM are marked with “+++.”)
NCC1CCN(c2ccncc2NC(=O)c2c(N)nn3cc(Cl)cnc23)CC1 [I-N-91, 2-amino-N-(4-(4-(aminomethyl)piperidin-1-yl)pyridin-3-yl)-6-chloropyrazolo[1,5-a]pyrimidine-3-carboxamide] | ++ (Compounds with a Cisplatin sensitization value >0.02 μM but <0.2 μM are marked with “++.”)
CN1CCN(c2ccncc2NC(=O)c2c(N)nn3cc(CC#N)cnc23)CC1 [I-N-82, 2-amino-6-(cyanomethyl)-N-(4-(4-methylpiperazin-1-yl)pyridin-3-yl)pyrazolo[1,5-a]pyrimidine-3-carboxamide] | ++ (Compounds with a Cisplatin sensitization value >0.02 μM but <0.2 μM are marked with “++.”)
Nc1nn2cc(Cl)cnc2c1C(=O)Nc1cnccc1OCCCO [I-O-53, 2-amino-6-chloro-N-(4-(3-hydroxypropoxy)pyridin-3-yl)pyrazolo[1,5-a]pyrimidine-3-carboxamide] | +++ (Compounds with a Cisplatin sensitization value of <0.02 μM are marked with “+++.”)
CN1CCN(c2c(F)cncc2NC(=O)c2c(N)nn3cc(F)cnc23)CC1 [I-N-15, 2-amino-6-fluoro-N-(5-fluoro-4-(4-methylpiperazin-1-yl)pyridin-3-yl)pyrazolo[1,5-a]pyrimidine-3-carboxamide] | +++ (Compounds with a Cisplatin sensitization value of <0.02 μM are marked with “+++.”)
CN(C)CCOCCOc1ccncc1NC(=O)c1c(N)nn2cc(Cl)cnc12 [I-O-47, 2-amino-6-chloro-N-(4-(2-(2-(dimethylamino)ethoxy)ethoxy)pyridin-3-yl)pyrazolo[1,5-a]pyrimidine-3-carboxamide] | + (Compounds with a Cisplatin sensitization value >0.2 μM but <5 μM are marked with “+.”)
Nc1nn2cc(F)cnc2c1C(=O)Nc1cncc(F)c1N1CCNCC1 [I-N-118, 2-amino-6-fluoro-N-(5-fluoro-4-(piperazin-1-yl)pyridin-3-yl)pyrazolo[1,5-a]pyrimidine-3-carboxamide] | +++ (Compounds with a Cisplatin sensitization value of <0.02 μM are marked with “+++.”)
CN1CCN(C(=O)C2CCCN(c3c(F)cncc3NC(=O)c3c(N)nn4cc(F)cnc34)C2)CC1 (stereo not drawn) [I-N-289, 2-amino-6-fluoro-N-(5-fluoro-4-(3-(4-methylpiperazine-1-carbonyl)piperidin-1-yl)pyridin-3-yl)pyrazolo[1,5-a]pyrimidine-3-carboxamide] | ++ (Compounds with a Cisplatin sensitization value >0.02 μM but <0.2 μM are marked with “++.”)
COCCS(=O)(=O)C1CCN(c2ccncc2NC(=O)c2c(N)nn3cc(F)cnc23)CC1 [I-N-208, 2-amino-6-fluoro-N-(4-(4-((2-methoxyethyl)sulfonyl)piperidin-1-yl)pyridin-3-yl)pyrazolo[1,5-a]pyrimidine-3-carboxamide] | +++ (Compounds with a Cisplatin sensitization value of <0.02 μM are marked with “+++.”)
Nc1nn2cc(F)cnc2c1C(=O)Nc1cnccc1C1CC1 [I-C-42, 2-amino-N-(4-cyclopropylpyridin-3-yl)-6-fluoropyrazolo[1,5-a]pyrimidine-3-carboxamide] | ++ (Compounds with a Cisplatin sensitization value >0.02 μM but <0.2 μM are marked with “++.”)
COC1CCN(c2ccncc2NC(=O)c2c(N)nn3cc(Cl)cnc23)CC1 [I-N-73, 2-amino-6-chloro-N-(4-(4-methoxypiperidin-1-yl)pyridin-3-yl)pyrazolo[1,5-a]pyrimidine-3-carboxamide] | +++ (Compounds with a Cisplatin sensitization value of <0.02 μM are marked with “+++.”)
Nc1nn2cc(F)cnc2c1C(=O)Nc1cnccc1-c1ccccc1 [I-C-5, 2-amino-6-fluoro-N-(4-phenylpyridin-3-yl)pyrazolo[1,5-a]pyrimidine-3-carboxamide] | +++ (Compounds with a Cisplatin sensitization value of <0.02 μM are marked with “+++.”)
N#CCc1cnc2c(C(=O)Nc3cnccc3OC3COC3)c(N)nn2c1 [I-O-38, 2-amino-6-(cyanomethyl)-N-(4-(oxetan-3-yloxy)pyridin-3-yl)pyrazolo[1,5-a]pyrimidine-3-carboxamide] | +++ (Compounds with a Cisplatin sensitization value of <0.02 μM are marked with “+++.”)
CN1CC2(CCC1=O)CCN(c1ccncc1NC(=O)c1c(N)nn3cc(F)cnc13)CC2 [I-N-231, 2-amino-6-fluoro-N-(4-(2-methyl-3-oxo-2,9-diazaspiro[5.5]undecan-9-yl)pyridin-3-yl)pyrazolo[1,5-a]pyrimidine-3-carboxamide] | +++ (Compounds with a Cisplatin sensitization value of <0.02 μM are marked with “+++.”)
CN1CCN(C(=O)C2(C#N)CCN(c3c(F)cncc3NC(=O)c3c(N)nn4cc(F)cnc34)CC2)CC1 [I-G-25, 2-amino-N-(4-(4-cyano-4-(4-methylpiperazine-1-carbonyl)piperidin-1-yl)-5-fluoropyridin-3-yl)-6-fluoropyrazolo[1,5-a]pyrimidine-3-carboxamide] | +++ (Compounds with a Cisplatin sensitization value of <0.02 μM are marked with “+++.”)
Cc1cc(C(=O)N2CCN(C)CC2)ccc1-c1ccncc1NC(=O)c1c(N)nn2cc(F)cnc12 [I-C-45, 2-amino-6-fluoro-N-(4-(2-methyl-4-(4-methylpiperazine-1-carbonyl)phenyl)pyridin-3-yl)pyrazolo[1,5-a]pyrimidine-3-carboxamide] | +++ (Compounds with a Cisplatin sensitization value of <0.02 μM are marked with “+++.”)
Nc1nn2cc(F)cnc2c1C(=O)Nc1cnccc1N1CCN(C2CCOC2)CC1 (racemic) [I-N-19, (R,S)-2-amino-6-fluoro-N-(4-(4-(tetrahydrofuran-3-yl)piperazin-1-yl)pyridin-3-yl)pyrazolo[1,5-a]pyrimidine-3-carboxamide] | +++ (Compounds with a Cisplatin sensitization value of <0.02 μM are marked with “+++.”)
CN1CC[C@@H](OC2CCN(c3ccncc3NC(=O)c3c(N)nn4cc(F)cnc34)CC2)C1 [I-N-131] | +++ (Compounds with a Cisplatin sensitization value of <0.02 μM are marked with “+++.”)
CN1CCN(c2c(Cl)cncc2NC(=O)c2c(N)nn3cc(F)cnc23)CC1 [I-N-85, 2-amino-N-(5-chloro-4-(4-methylpiperazin-1-yl)pyridin-3-yl)-6-fluoropyrazolo[1,5-a]pyrimidine-3-carboxamide] | ++ (Compounds with a Cisplatin sensitization value >0.02 μM but <0.2 μM are marked with “++.”)
CN1CC2(CCN(c3c(F)cncc3NC(=O)c3c(N)nn4cc(F)cnc34)CC2)OC1=O [I-N-229, 2-amino-6-fluoro-N-(5-fluoro-4-(3-methyl-2-oxo-1-oxa-3,8-diazaspiro[4.5]decan-8-yl)pyridin-3-yl)pyrazolo[1,5-a]pyrimidine-3-carboxamide] | +++ (Compounds with a Cisplatin sensitization value of <0.02 μM are marked with “+++.”)
N#CCc1cnc2c(C(=O)Nc3cnccc3OC3CCC3)c(N)nn2c1 [I-O-36, 2-amino-6-(cyanomethyl)-N-(4-cyclobutoxypyridin-3-yl)pyrazolo[1,5-a]pyrimidine-3-carboxamide] | +++ (Compounds with a Cisplatin sensitization value of <0.02 μM are marked with “+++.”)
